Results from patent publication US8206901B2, “Method for the synthesis of a bifunctional complex” (Nuevolution A/S, priority 2002, dated 2012).

Key:
αv/βIII receptor = αv/βIII receptor (Homo sapiens, UniProt P05106+P06756); conditions: cited from earlier work
[1] = molecular target: T1, integrin αv/βIII receptor (Homo sapiens, UniProt P05106+P06756); assay: Selection of 25-member split-and-mix library on immobilised integrin αVβ3, PCR, cloning and sequencing (Example 9); format: binding; conditions: after selection; 18 successful sequences
T1 construct: purchased Bachem
T1 sequence (P06756 31-889 limits assumed): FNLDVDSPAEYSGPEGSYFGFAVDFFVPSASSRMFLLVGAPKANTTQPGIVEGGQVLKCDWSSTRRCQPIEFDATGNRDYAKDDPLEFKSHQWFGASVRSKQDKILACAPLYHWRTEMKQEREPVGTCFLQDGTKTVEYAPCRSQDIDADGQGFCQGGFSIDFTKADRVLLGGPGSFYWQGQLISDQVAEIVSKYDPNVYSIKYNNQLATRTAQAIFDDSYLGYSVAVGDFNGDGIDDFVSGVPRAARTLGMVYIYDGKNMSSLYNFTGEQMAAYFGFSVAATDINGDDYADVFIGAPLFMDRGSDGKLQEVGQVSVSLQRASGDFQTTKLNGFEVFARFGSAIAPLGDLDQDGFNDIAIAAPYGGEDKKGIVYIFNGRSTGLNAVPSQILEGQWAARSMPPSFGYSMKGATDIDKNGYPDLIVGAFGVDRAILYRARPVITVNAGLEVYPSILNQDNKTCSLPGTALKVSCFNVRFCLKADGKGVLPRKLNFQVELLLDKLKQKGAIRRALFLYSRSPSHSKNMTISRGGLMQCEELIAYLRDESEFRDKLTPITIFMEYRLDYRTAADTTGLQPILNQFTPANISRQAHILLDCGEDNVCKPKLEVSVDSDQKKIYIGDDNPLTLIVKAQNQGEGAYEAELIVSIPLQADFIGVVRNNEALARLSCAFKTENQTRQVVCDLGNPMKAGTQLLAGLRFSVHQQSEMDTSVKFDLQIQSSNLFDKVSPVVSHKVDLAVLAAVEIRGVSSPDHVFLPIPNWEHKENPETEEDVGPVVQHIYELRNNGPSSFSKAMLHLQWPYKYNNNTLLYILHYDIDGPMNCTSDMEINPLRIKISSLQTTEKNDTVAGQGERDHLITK
T1 sequence (P06756 891-1048 partner limits assumed): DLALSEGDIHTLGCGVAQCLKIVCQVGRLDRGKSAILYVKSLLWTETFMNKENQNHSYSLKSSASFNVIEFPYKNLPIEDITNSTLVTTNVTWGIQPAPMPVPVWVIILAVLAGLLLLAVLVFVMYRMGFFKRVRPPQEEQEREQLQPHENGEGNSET
T1 sequence (P05106 27-788): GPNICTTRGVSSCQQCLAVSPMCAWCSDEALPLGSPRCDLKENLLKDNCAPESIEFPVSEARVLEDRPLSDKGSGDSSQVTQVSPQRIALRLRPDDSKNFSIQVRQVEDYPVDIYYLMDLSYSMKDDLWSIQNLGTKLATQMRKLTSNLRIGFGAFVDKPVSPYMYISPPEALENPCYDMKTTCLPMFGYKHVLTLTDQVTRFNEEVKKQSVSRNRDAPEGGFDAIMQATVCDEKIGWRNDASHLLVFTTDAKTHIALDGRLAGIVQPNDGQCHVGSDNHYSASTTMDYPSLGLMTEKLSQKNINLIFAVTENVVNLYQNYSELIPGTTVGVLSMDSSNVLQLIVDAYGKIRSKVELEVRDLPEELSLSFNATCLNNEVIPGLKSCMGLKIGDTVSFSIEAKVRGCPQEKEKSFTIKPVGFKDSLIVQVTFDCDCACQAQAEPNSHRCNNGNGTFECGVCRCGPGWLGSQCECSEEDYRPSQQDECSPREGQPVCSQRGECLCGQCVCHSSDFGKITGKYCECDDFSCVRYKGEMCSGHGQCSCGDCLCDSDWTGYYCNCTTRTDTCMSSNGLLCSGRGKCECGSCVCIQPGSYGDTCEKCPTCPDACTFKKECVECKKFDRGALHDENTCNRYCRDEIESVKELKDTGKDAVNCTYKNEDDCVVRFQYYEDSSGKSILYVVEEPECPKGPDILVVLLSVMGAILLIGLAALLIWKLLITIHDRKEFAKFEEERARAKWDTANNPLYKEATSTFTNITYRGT
Description: Maxisorp ELISA wells (NUNC A/S, Denmark) were coated with each 100 μL 2 μg/mL integrin αVβ3 (Bachem) in PBS buffer [2.8 mM NaH2PO4, 7.2 mM Na2HPO4, 0.15 M NaCl, pH 7.2] overnight at 4° C. Then the integrin solution was substituted for 200 μl blocking buffer [TBS, 0.05% Tween 20 (Sigma P-9416), 1% bovine serum albumin (Sigma A-7030), 1 mM MnCl2] which was left on for 1 hour at room temperature. Then the wells were washed 2 times with 250 μl blocking buffer and 5 μl of the encoded library was added to the wells after diluting it 20 times with blocking buffer. Following 2 hours incubation at room temperature the wells were washed with 20×250 μl blocking buffer.
After the final wash the wells were cleared of wash buffer and subsequently inverted and exposed to UV light at 300-350 nm for 30 seconds using a trans-illuminator set at 70% power.
100 μl blocking buffer without Tween-20 was immediately added to each well, the wells were shaken for 30 seconds, and the solutions containing eluted templates were removed for PCR analysis. […]
Individual E. coli clones were picked and transferred to PCR wells containing 50 μl water. Colonies were incubated at 94° C. for 5 minutes and 20 μl was used in a 25 μl PCR reaction with 5 pmol of each TOPO primer M13 forward & M13 reverse (AH365/AH366) and Ready-To-Go PCR beads (Amersham) using PCR program EKO50: 94° C. […]

Chain of αv/βIII receptor (P06756 31-889 limits assumed): as the sequence (P06756 31-889 limits assumed) above
Chain of αv/βIII receptor (P06756 891-1048 partner limits assumed): as the sequence (P06756 891-1048 partner limits assumed) above
Chain of αv/βIII receptor (P05106 27-788): as the sequence (P05106 27-788) above

## O=C(O)CC(NC(=O)CNC(=O)CCCc1ccc2c(n1)NCCC2)C(=O)O (stereo not drawn) [Feuston 5]
αv/βIII receptor
  affinity for αv/βIII compared to the RGD-tripeptide: ten-fold increased affinity
αv/βIII receptor; αv/βIII
  Kd: 111 nM
[1]
  output sequences identifying the exact ligand: 16 out of 18
